# The NIST ThermoML archive (doi:10.1016/j.tca.2015.06.009)
# Numbers after ± are expanded uncertainties.
# Experiment: not given
# Conditions: 300 K; 101.33 kPa; Crystal; Photoacoustics
row,thermal diffusivity [m2/s],SMILES
1,9.37e-05 ± 1.6e-06,[Al] [aluminum]
2,0.000116 ± 4e-06,[Cu] [copper]
3,0.000174 ± 1.2e-05,[Ag] [silver]

# Experiment: isobaric coefficient of expansion
# Conditions: 300 K; 101.33 kPa; Crystal; Photoacoustics
row,isobaric coefficient of expansion,SMILES
1,1.5e-05 ± 1e-06 1/K,[Al] [aluminum]
2,1.3e-05 ± 1e-06 1/K,[Cu] [copper]
3,1.4e-05 ± 1e-06 1/K,[Ag] [silver]
